Calls of active or inactive are those of the source.
Tests used:
[1] = target: T1, Caspase-3 (Homo sapiens, UniProt P42574); test: caspase-3 inhibitors as off-family protease, SAR follow-up, selectivity assay for SENP protease inhibitor project, biochemical, luminescence, set 2 (AID 588599); type: functional
T1 sequence (P42574 whole entry): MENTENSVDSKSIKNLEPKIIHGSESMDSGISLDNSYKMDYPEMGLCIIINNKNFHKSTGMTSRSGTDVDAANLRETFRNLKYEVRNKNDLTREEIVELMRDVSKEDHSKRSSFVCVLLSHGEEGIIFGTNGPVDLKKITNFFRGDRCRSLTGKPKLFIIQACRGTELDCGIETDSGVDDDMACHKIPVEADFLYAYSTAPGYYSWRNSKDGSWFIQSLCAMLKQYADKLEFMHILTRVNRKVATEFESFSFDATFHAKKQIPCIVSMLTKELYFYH

[2] = target: T2, Sentrin-specific protease 6 (Homo sapiens, UniProt Q9GZR1); test: SENP6 protease inhibitors, SAR follow-up, biochemical, luminescence, set 2 (AID 588598); type: functional
T2 sequence (Q9GZR1 whole entry): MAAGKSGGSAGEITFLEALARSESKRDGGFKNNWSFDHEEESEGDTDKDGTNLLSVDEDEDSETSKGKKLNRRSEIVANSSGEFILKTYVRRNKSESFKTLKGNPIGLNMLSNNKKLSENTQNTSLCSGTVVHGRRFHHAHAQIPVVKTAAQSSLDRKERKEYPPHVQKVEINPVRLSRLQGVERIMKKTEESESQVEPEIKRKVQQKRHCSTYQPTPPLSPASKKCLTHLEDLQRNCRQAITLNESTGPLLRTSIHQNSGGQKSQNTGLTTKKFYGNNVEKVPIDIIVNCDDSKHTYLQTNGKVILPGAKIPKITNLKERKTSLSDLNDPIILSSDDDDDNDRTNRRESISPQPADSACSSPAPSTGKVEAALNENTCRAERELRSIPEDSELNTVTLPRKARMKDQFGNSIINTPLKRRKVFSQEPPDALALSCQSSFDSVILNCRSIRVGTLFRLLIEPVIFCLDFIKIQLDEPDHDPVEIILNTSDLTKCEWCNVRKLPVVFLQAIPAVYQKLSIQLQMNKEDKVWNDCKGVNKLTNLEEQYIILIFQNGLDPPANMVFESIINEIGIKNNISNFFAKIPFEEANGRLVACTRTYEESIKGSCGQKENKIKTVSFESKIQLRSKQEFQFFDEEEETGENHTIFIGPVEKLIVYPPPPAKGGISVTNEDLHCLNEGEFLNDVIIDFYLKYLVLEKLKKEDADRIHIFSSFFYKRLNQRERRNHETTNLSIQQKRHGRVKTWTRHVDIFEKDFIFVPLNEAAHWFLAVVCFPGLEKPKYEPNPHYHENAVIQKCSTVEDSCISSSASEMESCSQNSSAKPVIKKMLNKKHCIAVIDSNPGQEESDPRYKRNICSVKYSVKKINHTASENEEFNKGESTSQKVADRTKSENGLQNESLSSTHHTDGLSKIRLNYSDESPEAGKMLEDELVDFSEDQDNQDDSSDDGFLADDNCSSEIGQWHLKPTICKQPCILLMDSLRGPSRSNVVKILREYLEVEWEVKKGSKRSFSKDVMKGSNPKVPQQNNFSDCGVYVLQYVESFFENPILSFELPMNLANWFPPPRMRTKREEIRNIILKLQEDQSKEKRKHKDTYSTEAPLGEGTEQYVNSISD

[3] = target: T3, Sentrin-specific protease 7 (Homo sapiens, UniProt Q9BQF6); test: SENP7 protease inhibitors, SAR follow-up, biochemical, luminescence, set 2 (AID 588600); type: functional
T3 sequence (Q9BQF6 whole entry): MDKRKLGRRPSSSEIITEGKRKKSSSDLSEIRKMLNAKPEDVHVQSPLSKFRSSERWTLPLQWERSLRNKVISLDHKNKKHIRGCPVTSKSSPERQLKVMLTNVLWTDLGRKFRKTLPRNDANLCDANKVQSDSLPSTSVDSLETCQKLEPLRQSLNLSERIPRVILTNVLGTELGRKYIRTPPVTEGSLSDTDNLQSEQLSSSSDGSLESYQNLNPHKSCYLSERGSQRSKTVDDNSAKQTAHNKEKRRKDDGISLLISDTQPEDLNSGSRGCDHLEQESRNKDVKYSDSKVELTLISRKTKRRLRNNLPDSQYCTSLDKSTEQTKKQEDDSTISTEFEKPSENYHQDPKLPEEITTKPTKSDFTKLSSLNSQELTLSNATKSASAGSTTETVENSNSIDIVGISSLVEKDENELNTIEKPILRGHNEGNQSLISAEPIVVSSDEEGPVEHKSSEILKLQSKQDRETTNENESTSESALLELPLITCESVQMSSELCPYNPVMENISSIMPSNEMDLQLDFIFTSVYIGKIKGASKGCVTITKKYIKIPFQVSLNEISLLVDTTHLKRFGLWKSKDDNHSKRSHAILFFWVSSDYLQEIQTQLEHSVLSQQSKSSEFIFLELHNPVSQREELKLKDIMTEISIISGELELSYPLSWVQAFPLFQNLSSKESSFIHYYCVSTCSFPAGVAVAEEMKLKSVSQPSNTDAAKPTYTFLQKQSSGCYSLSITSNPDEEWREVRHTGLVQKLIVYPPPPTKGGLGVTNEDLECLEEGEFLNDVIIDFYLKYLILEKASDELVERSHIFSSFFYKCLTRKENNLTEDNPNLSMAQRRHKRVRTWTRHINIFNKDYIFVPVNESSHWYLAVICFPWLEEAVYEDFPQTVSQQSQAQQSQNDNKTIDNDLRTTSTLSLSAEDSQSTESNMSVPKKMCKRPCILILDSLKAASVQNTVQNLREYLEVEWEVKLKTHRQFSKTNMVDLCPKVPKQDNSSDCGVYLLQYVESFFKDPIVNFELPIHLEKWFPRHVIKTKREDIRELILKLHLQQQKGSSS

[4] = target: T4, Sentrin-specific protease 8 (Homo sapiens, UniProt Q96LD8); test: SENP8 protease inhibitors, SAR follow-up, biochemical, luminescence, set 2 (AID 588601); type: functional
T4 sequence (Q96LD8 whole entry): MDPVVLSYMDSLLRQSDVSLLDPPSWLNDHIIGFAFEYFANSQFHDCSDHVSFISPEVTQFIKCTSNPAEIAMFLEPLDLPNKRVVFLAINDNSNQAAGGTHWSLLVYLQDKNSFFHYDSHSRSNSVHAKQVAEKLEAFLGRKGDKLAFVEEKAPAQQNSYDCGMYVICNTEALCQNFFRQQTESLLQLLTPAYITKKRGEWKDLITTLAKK

[5] = target: Aryl hydrocarbon receptor (Homo sapiens, UniProt P35869); conditions: Potency;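 note: confirmatory quantitative high-throughput screen measuring activation of the AhR signaling pathway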
Sequence of Aryl hydrocarbon receptor (P35869 whole entry): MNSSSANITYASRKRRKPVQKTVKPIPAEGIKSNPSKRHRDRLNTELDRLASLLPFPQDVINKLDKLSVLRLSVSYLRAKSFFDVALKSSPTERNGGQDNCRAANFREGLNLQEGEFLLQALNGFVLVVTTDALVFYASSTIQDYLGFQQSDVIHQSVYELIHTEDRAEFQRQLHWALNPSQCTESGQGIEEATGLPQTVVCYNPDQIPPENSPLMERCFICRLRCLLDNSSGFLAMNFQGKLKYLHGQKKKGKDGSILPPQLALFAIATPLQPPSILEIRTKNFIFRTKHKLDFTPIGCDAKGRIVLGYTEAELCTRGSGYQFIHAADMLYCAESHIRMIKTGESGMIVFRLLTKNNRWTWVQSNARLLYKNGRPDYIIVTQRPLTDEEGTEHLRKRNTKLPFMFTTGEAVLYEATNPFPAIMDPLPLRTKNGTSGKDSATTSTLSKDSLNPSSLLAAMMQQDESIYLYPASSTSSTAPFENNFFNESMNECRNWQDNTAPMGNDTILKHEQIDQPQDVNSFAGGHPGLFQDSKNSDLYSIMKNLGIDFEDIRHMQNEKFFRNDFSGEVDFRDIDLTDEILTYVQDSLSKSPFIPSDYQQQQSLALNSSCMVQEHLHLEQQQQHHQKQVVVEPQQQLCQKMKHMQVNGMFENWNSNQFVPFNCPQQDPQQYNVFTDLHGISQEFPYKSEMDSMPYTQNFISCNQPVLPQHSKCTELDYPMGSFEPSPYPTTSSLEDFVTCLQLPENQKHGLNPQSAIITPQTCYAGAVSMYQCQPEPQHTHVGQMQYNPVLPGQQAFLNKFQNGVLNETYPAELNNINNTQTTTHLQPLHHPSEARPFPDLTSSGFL

[6] = target: T4, Sentrin-specific protease 8; test: SENP8 protease inhibitors, SAR follow-up, biochemical, luminescence (AID 504501); type: functional
[7] = target: T2, Sentrin-specific protease 6; test: SAR Analysis of small molecule inhibitors of Sentrin-specific protease 6 (SENP6) using a Luminescent assay. [Related pubchem assays (depositor defined):AID2582, AID2599]; type: functional
[8] = target: T3, Sentrin-specific protease 7; test: SENP7 protease inhibitors, SAR follow-up, biochemical, luminescence (AID 504497); type: functional
[9] = target: T1, Caspase-3; test: SAR Analysis of small molecule inhibitors of Sentrin-specific proteases (SENPs) using a Caspase-3 Selectivity assay. [Related pubchem assays (depositor defined):AID2540, AID2599, AID434973, AID489001]; type: functional
[10] = target: Adenosylmethionine-8-amino-7-oxononanoate aminotransferase (Mycobacterium tuberculosis, UniProt P9WQ81); test: Mycobacterium tuberculosis BioA enzyme inhibitor Measured in Biochemical System Using Plate Reader - 2163-02_Inhibitor_Dose_CherryPick_Activity.; type: functional, Mycobacterium tuberculosis UT205
Sequence of Adenosylmethionine-8-amino-7-oxononanoate aminotransferase (P9WQ81 whole entry): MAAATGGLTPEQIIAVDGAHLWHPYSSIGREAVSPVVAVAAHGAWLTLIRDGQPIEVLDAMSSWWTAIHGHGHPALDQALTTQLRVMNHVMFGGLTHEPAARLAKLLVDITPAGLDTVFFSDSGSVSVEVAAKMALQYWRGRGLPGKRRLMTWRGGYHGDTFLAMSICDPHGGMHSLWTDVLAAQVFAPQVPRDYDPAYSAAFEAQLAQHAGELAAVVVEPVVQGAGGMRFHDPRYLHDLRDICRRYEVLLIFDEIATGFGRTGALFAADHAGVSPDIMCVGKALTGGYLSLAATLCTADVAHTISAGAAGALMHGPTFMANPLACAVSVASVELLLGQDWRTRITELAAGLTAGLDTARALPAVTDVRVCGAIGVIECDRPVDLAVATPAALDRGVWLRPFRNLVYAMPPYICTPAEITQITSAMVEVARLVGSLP

[11] = target: Genome polyprotein (dengue virus type 2, UniProt P29990); test: Dengue-2 NS5 methyltransferase inhibitors, primary screen, biochemical, confirmation dose response (AID 588689); type: functional
Sequence of Genome polyprotein (P29990 2492-3391 limits assumed): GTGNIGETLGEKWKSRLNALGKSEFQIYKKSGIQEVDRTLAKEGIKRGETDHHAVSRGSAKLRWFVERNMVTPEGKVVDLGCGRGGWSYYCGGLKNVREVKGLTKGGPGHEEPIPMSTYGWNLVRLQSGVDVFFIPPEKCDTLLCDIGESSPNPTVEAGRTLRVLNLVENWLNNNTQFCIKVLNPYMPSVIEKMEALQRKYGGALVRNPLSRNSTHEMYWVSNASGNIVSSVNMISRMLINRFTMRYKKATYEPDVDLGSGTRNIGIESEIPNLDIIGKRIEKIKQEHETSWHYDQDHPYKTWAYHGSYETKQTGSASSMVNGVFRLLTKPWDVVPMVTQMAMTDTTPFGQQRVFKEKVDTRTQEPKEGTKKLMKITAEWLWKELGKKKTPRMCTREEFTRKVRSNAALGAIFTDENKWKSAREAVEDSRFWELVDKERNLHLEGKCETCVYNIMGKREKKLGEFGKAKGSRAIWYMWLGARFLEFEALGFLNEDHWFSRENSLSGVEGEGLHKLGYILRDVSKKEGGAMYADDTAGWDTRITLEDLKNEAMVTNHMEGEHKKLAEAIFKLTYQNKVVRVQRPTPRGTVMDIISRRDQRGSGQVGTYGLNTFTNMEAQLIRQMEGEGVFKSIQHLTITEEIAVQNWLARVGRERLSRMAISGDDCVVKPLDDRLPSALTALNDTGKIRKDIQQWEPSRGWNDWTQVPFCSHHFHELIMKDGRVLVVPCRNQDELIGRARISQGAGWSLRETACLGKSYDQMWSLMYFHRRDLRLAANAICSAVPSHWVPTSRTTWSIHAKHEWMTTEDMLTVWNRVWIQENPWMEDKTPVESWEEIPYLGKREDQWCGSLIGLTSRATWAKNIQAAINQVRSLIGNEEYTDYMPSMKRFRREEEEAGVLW

[12] = target: DNA dC->dU-editing enzyme APOBEC-3A (Homo sapiens, UniProt P31941); test: SAR analysis of small molecule inhibitors of APOBEC3A DNA Deaminase via a fluorescence-based single-stranded DNA deaminase assay.; type: functional; conditions: read-out: IC50_Mean
Sequence of DNA dC->dU-editing enzyme APOBEC-3A (P31941 whole entry): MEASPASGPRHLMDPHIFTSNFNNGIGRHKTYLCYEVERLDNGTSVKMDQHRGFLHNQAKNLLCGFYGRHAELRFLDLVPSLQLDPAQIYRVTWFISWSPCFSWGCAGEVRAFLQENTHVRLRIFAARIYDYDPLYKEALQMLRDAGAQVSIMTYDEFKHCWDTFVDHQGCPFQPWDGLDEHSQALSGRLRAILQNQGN

[13] = target: DNA dC->dU-editing enzyme APOBEC-3G (Homo sapiens, UniProt Q9HC16); test: APOBEC3G deaminase inhibitors, SAR follow-up, biochemical, fluorescence, single-stranded DNA substrate (AID 602136); type: functional; conditions: read-out: IC50_Mean
Sequence of DNA dC->dU-editing enzyme APOBEC-3G (Q9HC16 whole entry): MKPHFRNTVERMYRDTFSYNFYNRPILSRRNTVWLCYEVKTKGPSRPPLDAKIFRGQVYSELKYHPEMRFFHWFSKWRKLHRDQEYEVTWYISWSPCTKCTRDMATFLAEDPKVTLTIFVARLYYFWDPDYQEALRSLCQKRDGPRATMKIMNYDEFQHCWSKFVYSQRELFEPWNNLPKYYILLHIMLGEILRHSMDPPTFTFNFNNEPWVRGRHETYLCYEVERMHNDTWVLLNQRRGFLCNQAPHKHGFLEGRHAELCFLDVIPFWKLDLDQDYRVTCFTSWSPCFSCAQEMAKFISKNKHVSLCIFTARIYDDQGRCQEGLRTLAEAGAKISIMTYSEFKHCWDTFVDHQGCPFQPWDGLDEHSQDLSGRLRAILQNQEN

[14] = target: T5, Interleukin-8 (Homo sapiens, UniProt P10145); test: Dose Response confirmation of uHTS small molecule hits for cystic fibrosis induced NFkb Inhibitors in a PAF-induced IL8 counterscreen.; type: functional; conditions: read-out: IC50_Mean
T5 sequence (P10145 whole entry): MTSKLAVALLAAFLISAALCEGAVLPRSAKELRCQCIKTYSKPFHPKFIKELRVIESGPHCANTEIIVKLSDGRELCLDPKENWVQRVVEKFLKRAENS

[15] = target: T5, Interleukin-8; test: Dose Response confirmation of uHTS small molecule hits for cystic fibrosis induced NFkb Inhibitors in a TNFa-induced IL8 counterscreen.; type: functional; conditions: read-out: IC50_Mean
[16] = ARNT/TACC3 interaction disruptors, potency, confirmation, biochemical, AlphaScreen, cherry-picked samples (AID 651703); type: functional, Homo sapiens;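 note: His-tagged ARNT PAS-B domain paired with GST-TACC3 E629A dimer coactivator fragment; potency of inhibitors that break up the complex and lower AlphaScreen signal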

**Q.** For COc1cccc(-n2nnc3c(N4CCN(C(=O)C(=O)c5c(C)[nH]c6ccccc56)CC4)ncnc32)c1, which IC50 [1] is on record?
**A.** > 99 µM (inactive)

**Q.** And the IC50 [2]?
**A.** > 99 µM (inactive)

**Q.** What about the IC50 [3] of the same molecule?
**A.** > 99 µM (inactive)

**Q.** What about the IC50 [4] of the same molecule?
**A.** > 99 µM (inactive)

**Q.** Which AC50 [5] does the source give for CC(C)OC(=O)Nc1cccc(Cl)c1 [CHLORPROPHAM] here?
**A.** 63.1 µM (inconclusive)

**Q.** Which IC50 [1] does the source give for CCCCc1ccc2nc(NC(=O)c3ccc(Br)o3)sc2c1 here?
**A.** 5.94 µM (active)

**Q.** What about the IC50 [6] of the same molecule?
**A.** > 99 µM (inactive)

**Q.** And the IC50 [7]?
**A.** > 99 µM (inactive)

**Q.** And the IC50 [2]?
**A.** 6.66 µM (active)

**Q.** What about the IC50 [3] of the same molecule?
**A.** 8.4 µM (active)

**Q.** What about the IC50 [8] of the same molecule?
**A.** 3.8 µM (active)

**Q.** What about the IC50 [9] of the same molecule?
**A.** 11 µM (active)

**Q.** What about the IC50 [4] of the same molecule?
**A.** 5.7 µM (active)

**Q.** With O=C(O)CN1C(=O)/C(=C\c2cc(Br)ccc2OCc2ccc([N+](=O)[O-])cc2)SC1=S as the molecule, how does the AC50 [10] read?
**A.** 11.7 µM (active)

**Q.** What about the IC50 [11] of the same molecule?
**A.** 30.3 µM (active)

**Q.** Which IC50 [12] does the source give for COc1ccc(-c2nnc(SCc3nc4ccsc4c(=O)[nH]3)[nH]2)cc1 here?
**A.** > 99 µM (inactive)

**Q.** And the IC50 [13]?
**A.** 66.4 µM (inactive)

**Q.** Which IC50 [14] does the source give for C=CCn1c(Oc2ccccc2F)nc2c1c(=O)n(C)c(=O)n2C here?
**A.** 51.1 µM (inactive)

**Q.** And the IC50 [15]?
**A.** > 79 µM (inactive)

**Q.** With C/C(=N\NC(=O)c1ccncc1)C12CC3CC(CC(C3)C1)C2 as the molecule, how does the AC50 [16] read?
**A.** 88.3 µM (active)

Source: ChEMBL document CHEMBL1201862, “PubChem BioAssay data set” (2004)
